In paper PMC7053292 (Research in Pharmaceutical Sciences, 2020):
Like-named read-outs stand apart in the source and are kept apart here. Marks after values point to notes of the source that are not given here.

Tests used:
[1] = target: T1, α-amylase from Aspergillus oryzae (Aspergillus oryzae, UniProt P0C1B3); experiment: biochemical; settings: for inhibition percentage lower than standard inhibitor acarbose on α-amylase: ratio of inhibition percentages, acarbose vs sample; for inhibition at 20 µM: read-out: Inhibition at 0.02 mM (%) α-Amylase
[2] = target: T2, α-glucosidase from Saccharomyces cerevisiae (Saccharomyces cerevisiae, UniProt P53341); experiment: α-Glucosidase assay; assay type: biochemical; settings: for inhibition percentage lower than standard inhibitor acarbose on α-glucosidase: ratio of inhibition percentages, acarbose vs sample; for inhibition at 20 µM: read-out: Inhibition at 0.02 mM (%) α-Glucosidase
[3] = target: T1, α-amylase from Aspergillus oryzae; experiment: Kinetic study on α-amylase; assay type: biochemical; settings: for α-Amylase inhibition type: Lineweaver-Burk and Dixon plots; for Ki: substrate amylose
[4] = DPPH assay; settings: mean ± SD, n = 3; for Inhibitory activity at 0.5 mM (%): DPPH; for IC50: read-out: IC50 (DPPH free radical scavenging)
[5] = target: T2, α-glucosidase from Saccharomyces cerevisiae; experiment: Kinetic study on α-glucosidase; assay type: biochemical; settings: for α-Glucosidase inhibition type: Lineweaver-Burk and Dixon plots; for Ki: α-Glucosidase Ki, from slope (Km/Vmax) vs [I], substrate 4-pNPG, free enzyme
[6] = IC50 values (mM) α-Amylase, mean ± SD, n = 3
[7] = α-Amylase Ki, from slope (Km/Vmax) vs [I], free enzyme
[8] = α-Amylase Ki´, from 1/Vmax vs [I], enzyme-substrate complex

T2 sequence (P53341 whole entry): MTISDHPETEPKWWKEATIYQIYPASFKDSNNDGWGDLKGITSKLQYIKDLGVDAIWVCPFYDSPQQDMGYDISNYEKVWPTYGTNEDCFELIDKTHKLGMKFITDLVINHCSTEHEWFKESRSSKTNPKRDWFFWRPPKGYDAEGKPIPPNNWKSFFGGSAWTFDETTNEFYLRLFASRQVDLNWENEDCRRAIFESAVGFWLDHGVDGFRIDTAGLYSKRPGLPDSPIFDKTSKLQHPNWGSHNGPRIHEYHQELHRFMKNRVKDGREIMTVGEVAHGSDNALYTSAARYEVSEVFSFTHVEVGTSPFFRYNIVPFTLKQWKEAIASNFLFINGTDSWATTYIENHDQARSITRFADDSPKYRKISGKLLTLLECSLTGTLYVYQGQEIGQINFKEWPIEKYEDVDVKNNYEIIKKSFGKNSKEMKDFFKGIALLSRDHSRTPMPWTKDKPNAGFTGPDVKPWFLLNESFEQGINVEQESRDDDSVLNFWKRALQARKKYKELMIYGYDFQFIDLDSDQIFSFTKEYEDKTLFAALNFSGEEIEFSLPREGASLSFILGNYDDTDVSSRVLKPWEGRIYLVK

Row | Compound | IC50 [1] | IC50 [1, 6] | inhibition percentage lower than standard inhibitor acarbose on α-amylase [1] | inhibition at 20 µM [1] | IC50 [2] | inhibition percentage lower than standard inhibitor acarbose on α-glucosidase [2] | inhibition at 20 µM [2] | α-Amylase inhibition type [3] | Ki [3, 7] | Ki [3, 8] | Inhibitory activity at 0.5 mM (%) [4] | IC50 [4] | α-Glucosidase inhibition type [5] | Ki [5] | less potential on α-amylase than 4a on α-glucosidase (IC50 ratio) ([1]; IC50 on α-amylase vs IC50 of 4a on α-glucosidase) | less potential on α-amylase than 4b on α-amylase (IC50 ratio) ([1]; IC50 on α-amylase vs IC50 of 4b on α-amylase) | less potential on α-amylase than 4b on α-glucosidase (IC50 ratio) ([1]; IC50 on α-amylase vs IC50 of 4b on α-glucosidase)
1 | CC(=O)C1CCCN1S(=O)(=O)c1ccc(C)cc1 (stereo not shown) [4b, N-(tosyl)-2-acetylpyrrolidine] | 2.72 ± 0.09 mM | 3.21 ± 0.65 mM | ~2.13 times | 30.1 ± 0.78% | 1.64 ± 0.08 mM | approximately 2.21 times | 32.31 ± 0.29% | Mixed type | 270 µM | 710 µM | 34.28 ± 0.73^b % | 1.82 ± 0.048 mM | Mixed type | 230 µM | – | – | –
2 | C[C@H]1O[C@H](O[C@H]2[C@H](O)[C@@H](O)[C@@H](O[C@H]3[C@H](O)[C@@H](O)C(O)O[C@@H]3CO)O[C@@H]2CO)[C@H](O)[C@@H](O)[C@@H]1N[C@H]1C=C(CO)[C@@H](O)[C@H](O)[C@H]1O (stereo partly shown) [Acarbose, acarbose, reference compound] | – | – | – | 61.7 ± 1.14% | – | – | – | Mixed type | – | – | – | – | Mixed type | – | – | – | –
3 | CC(=O)C1CCCN1Cc1ccccc1 (stereo not shown) [4a, N-(benzyl)-2-acetylpyrrolidine] | 3.21 ± 0.65 mM | 2.72 ± 0.09 mM | ~2.13 times | 28.9 ± 0.57% | 0.52 ± 0.02 mM | approximately 2.21 times | 40.3 ± 0.8% | Mixed type | 230 µM | 2350 µM | 41.62 ± 0.64^a % | 1.01 ± 0.01 mM | Mixed type | 290 µM | ~6.2 times | approximately 1.20 times | approximately 2.0 times
